Tested on: BJAB cells
Experiment: Fc:FasL-induced apoptosis with CD74-derived peptides
Format: cell-based
Details: after 24 hours, compared to buffer- and unrelated peptide-treated cells
Source text: A membrane proximal region of CD74-derived peptides disrupts CD74-Fas complexes. […] The CH-11 binding site was mapped to the membrane-proximal CRD3-domain of Fas.^10 We thus predicted that the membrane-proximal region of CD74 may be involved in the interaction with Fas. We designed four 20 amino acids long peptides with five amino acid overlaps spanning this region of CD74 (FIG. 16A).
The goal of this example was to design and identify peptides that compete with the Fas-CD74 complex in order to enhance Fas-mediated apoptosis. […] In order to better define competing peptides and peptides with apoptosis activity, we tested shorter peptides. We incubated seven amino acid length peptides (7mer 1, 7mer 2, and 7mer3) with BJAB cells and then stimulated apoptosis using recombinant Fas ligand (Fc:FasL).

Row | Substance | Fas ligand-induced apoptosis (7mer peptides)
1 | QQQGRLD [7mer 1] | significantly enhanced levels of Fas ligand-induced apoptosis
2 | GRLDKLT [7mer 2] | significantly enhanced levels of Fas ligand-induced apoptosis
3 | DKLTVTS [7mer 3] | significantly enhanced levels of Fas ligand-induced apoptosis
